Laboratory results as given in patent US20190151341A1, “APPLICATION OF TENVERMECTIN FOR PREVENTING AND TREATING PARASITE INFECTION” (ZHEJIANG HISUN PHARMACEUTICAL CO., LTD., priority 2016, published 2019).

How the values were obtained:
[1] = test system: allogynogenetic crucian carp; test: Toxicity to allogynogenetic crucian carp, semi-static method, 96 hours; format: in vivo
Source text: Test fish and water: allogynogenetic crucian carp was purchased from Taowang Farm in Jiaojiang District, Taizhou City, with a body length of (9.60±0.52) cm and a body weight of (28.22±3.44) g. The healthy and vigorous fish with the same size were selected and temporarily raised in an indoor aquarium. They were domesticated for 7 days indoors before the test. The natural mortality rate was zero.
99.4% Tenvermectin A (the mass content of tenvermectin B was 0.02%) (Zhejiang Hisun Pharmaceutical Co., Ltd.);
Tenvermectin (the mass ratio of tenvermectin A/tenvermectin B was 95/5) (Zhejiang Hisun Pharmaceutical Co., Ltd.);
Tenvermectin (the mass ratio of tenvermectin A/tenvermectin B was 90/10) (Zhejiang Hisun Pharmaceutical Co., Ltd.);
Tenvermectin (the mass ratio of tenvermectin A/tenvermectin B was 85/15) (Zhejiang Hisun Pharmaceutical Co., Ltd.);
99.1% Tenvermectin B (the mass content of tenvermectin A was 0.51%) (Zhejiang Hisun Pharmaceutical Co., Ltd.);
92% Avermectin (Zhejiang Qianjiang Biochemical Co., Ltd.);
96% Ivermectin (Zhejiang Hisun Pharmaceutical Co., Ltd.);
90% Methylamino avermectin benzoate (Emamectin benzoate) (Zhejiang Shenghua Biok Biotechnology Co., Ltd.).
Method: semi-static method. […]

zebrafish = test: Toxicity to zebrafish, semi-static method, 96 hours; details: 8 h
Protocol: Test agents: avermectin, milbemycin, ivermectin, tenvermectin A and tenvermectin B were all from Zhejiang Hisun Pharmaceutical Co., Ltd. The samples were formulated into 50 mg/ml mother liquors with DMF.
Test fish and water: zebrafish (Brachydanio rerio) was purchased from Zhejiang Academy of Agricultural Sciences, with the same size, average body length of 2-3 cm and average body weight of 0.3 g. The zebrafish was domesticated for 7 days indoors before the test. […] Feeding was stopped 1 day before the test and the fish were not fed during the test. The test water was tap water with residual chlorine removed by exposure to the sun for more than 24 hours, and the pH thereof was 6.8.
Test methods: semi-static method. Three level differences were provided for each sample: 0.5 ppm, 1.0 ppm and 1.5 ppm, and three parallel groups were provided for each level difference, 10 zebrafish were raised for each group, and blank controls (one group without agents and one group with only solvent) were provided. The corresponding volume of mother liquor was taken according to the concentration as required for each sample, and the volume of each sample was adjusted to 150 μl with DMF, and then each sample was added to the test group (containing 1.6 L of water). The room temperature was controlled at 22±2° C. for 96 hours, and the water was changed every 24 hours and the samples were re-added. The fish mortality rate was recorded for the first 8 hours and at 24, 48, 72 and 96 hours, and the dead fish were removed in time.

[2] = test system: digestive tract nematodes; test: Repelling nematode in digestive track of sheep (fecal egg count); format: in vivo
Source text: (§1) Test agents: 1% ivermectin injection, 1% tenvermectin A injection, and 1% tenvermectin B injection as obtained in Example 1.
Test animals and grouping: sheep grazed under the same condition were selected, and 80 sheep of 0.8-2.0 years old naturally infected with digestive tract nematodes were selected through fecal examination. The average weight of the test sheep was 30 kg. The 80 sheep were randomly divided into 4 groups, 20 heads for each group. The first group was the ivermectin control group, the second group was the tenvermectin A group, and the third group was the tenvermectin B group. All the medicated groups were injected subcutaneously in the neck according to 0.2 mg/kg·bw. The fourth group was a blank group and was not medicated.
1) The feces of the sheep in each group were collected and examined one by one a day before administration, and the worm eggs were counted by the McMaster's method, and the number of eggs per gram of feces (EPG) was counted.
2) On the 9th day after administration, the sheep of each group were subjected to a fecal examination by McMaster's method, and EPG was counted.
3) The egg negative conversion rates and egg reduction rates were calculated according to a conventional method to assess the efficacy.

[3] = test system: swine nematode (nematodes in the digestive tract); test: Repelling swine nematode in naturally infected pigs (fecal egg count, McMaster's method); format: in vivo; details: 1% injection 0.2 mg/kg bw s.c.
Source text: as §1
(§2) Test animals and grouping: pigs cultured in the same farm were selected, and 40 pigs naturally infected with nematodes in the digestive tract were selected for testing through fecal examination. The average weight of the test pigs was 30-50 kg. Forty pigs were randomly divided into 4 groups, 10 for each group. The first group was the ivermectin control group, the second group was the tenvermectin A group, and the third group was the tenvermectin B group. All the medicated groups were injected subcutaneously in the neck according to 0.2 mg/kg·bw. The forth group was a blank group and was not administered.
(§3) 1) The feces of the pigs in each group were collected and examined one by one a day before administration, and worm eggs were counted by the McMaster's method. The number of eggs per gram of feces (EPG) was counted and the condition of Haematopinus on the body surface was observed.
(§4) 2) 1, 2, 3 and 4 weeks after administration, the feces of the pigs in each group were examined by the McMaster's method, and the EPG was counted and the changes of Haematopinus on the body surface were observed.
3) The negative conversion rates and egg reduction rates of the test pigs were calculated by a conventional method to assess the efficacy of repelling swine nematode.

Sarcoptes mites = test: Treatment of Sarcoptes mites of sheep (skin scrapings, live mites); format: in vivo; details: 1% injection 0.2 mg/kg bw s.c.; for Negative conversion number: sheep (10 per group); for Negative conversion rate (%): sheep
Source text: Test agents: 1% ivermectin injection, 1% tenvermectin A injection and 1% tenvermectin B injection as obtained in Example 1.
Test animals and grouping: sheep grazed under the same conditions were selected. Upon parasitological examination, 40 sheep which had been infected with sheep Sarcoptes mites were selected. The 40 sheep were randomly divided into 4 groups, 10 heads for each group. The first group was the ivermectin control group, the second group was the tenvermectin A group, and the third group was the tenvermectin B group. All the medicated groups were injected subcutaneously in the neck according to 0.2 mg/kg·bw. The fourth group was a blank group and was not medicated.
Test methods: the changes of clinical symptoms were observed. The skin of sheep was scratched using a surgical blade with glycerin at the junction of the affected part and the healthy skin of the diseased sheep until the skin slightly bled. The skin scraps were taken then were placed in a dish and brought back to the laboratory. Then the skin scraps were placed on a slide, a drop of aqueous solution of 50% glycerol was added, and a cover slip was covered, and then the skin scraps were checked under a low magnification microscope. It was confirmed to be positive if live Sarcoptes mites were observed. Samples were taken before administration and at 1, 2, 3 and 4 weeks after administration to be examined. The samples were examined under a microscope, based on whether live mites were observed, the samples can be determined to be positive as long as one live mite was observed. Changes of clinical symptoms were observed as references.

swine Haematopinus = test: Killing effect on swine Haematopinus on the body surface; format: in vivo; details: pigs, 1% injection 0.2 mg/kg bw s.c., until the 7th day and in the following 3 weeks
Source text: as §1, §2, §3, §4
4) The killing effects of swine Haematopinus of the agents were assessed according to the survival of swine Haematopinus on the 7th day after administration.

[4] = allogynogenetic crucian carp, 0.5 ppm, 8 h
[5] = allogynogenetic crucian carp, 1.0 ppm, 8 h
[6] = allogynogenetic crucian carp, 2.0 ppm, 8 h
[7] = sheep, 1% injection 0.2 mg/kg bw s.c., 9th day after administration

Question: Which results are given for `CC[C@H](C)[C@H]1O[C@]2(C=C[C@@H]1C)C[C@@H]1C[C@@H](C/C=C(\C)[C@@H](O[C@H]3C[C@H](OC)[C@@H](O[C@H]4C[C@H](OC)[C@@H](O)[C@H](C)O4)[C@H](C)O3)[C@@H](C)/C=C/C=C3\CO[C@@H]4[C@H](O)C(C)=C[C@@H](C(=O)O1)[C@]34O)O2` [Avermectin, reference compound]?
Answer: Survival condition (survival rates/%) [1, 4]: 0%; Survival condition (survival rates/%) [1, 5]: 0%; Survival condition (survival rates/%) [1, 6]: 0%; Survival condition (survival rates/%) (zebrafish; 0.5 ppm): 0%; Survival condition (survival rates/%) (zebrafish; 1.0 ppm): 0%; Survival condition (survival rates/%) (zebrafish; 1.5 ppm): 0%

Question: What does the source list for `CC[C@H](C)C1O[C@]2(C=C[C@@H]1C)C[C@@H]1C[C@@H](C/C=C(\C)[C@@H](O[C@H]3C[C@H](OC)[C@@H](O[C@H]4C[C@H](OC)[C@H](NC)[C@H](C)O4)[C@H](C)O3)[C@@H](C)/C=C/C=C3\CO[C@@H]4[C@H](O)C(C)=C[C@@H](C(=O)O1)[C@]34O)O2.O=C(O)c1ccccc1` (some centres unmarked) [Methylamino avermectin benzoate, reference compound]?
Answer: Survival condition (survival rates/%) [1, 4]: 0%; Survival condition (survival rates/%) [1, 5]: 0%; Survival condition (survival rates/%) [1, 6]: 0%; Survival condition (survival rates/%) (zebrafish; 0.5 ppm): 0%; Survival condition (survival rates/%) (zebrafish; 1.0 ppm): 0%; Survival condition (survival rates/%) (zebrafish; 1.5 ppm): 0%

Question: What does the source list for Ivermectin [reference compound]?
Answer: Number of sheep negatively conversed ([2]; sheep (20 per group), 1% injection 0.2 mg/kg bw s.c., 9th day after administration): 20; Egg reduction rate (%) [2, 7]: 100%; Negative conversion rate (%) [2, 7]: 100%; EPG after administration ([2]; sheep, eggs per gram of feces, 0.2 mg/kg bw s.c., 9th day after administration): 0; EPG before administration ([2]; sheep, eggs per gram of feces, baseline a day before administration): 9100; Egg reduction rate (%) ([3]; 1st week after administration): 76.2%; Negative conversion rate (%) ([3]; 1st week after administration): 70%; Egg reduction rate (%) ([3]; 2nd week after administration): 91.2%; Negative conversion rate (%) ([3]; 2nd week after administration): 90%; Egg reduction rate (%) ([3]; 3rd week after administration): 100%; Negative conversion rate (%) ([3]; 3rd week after administration): 80%; Egg reduction rate (%) ([3]; 4th week after administration): 66.2%; Negative conversion rate (%) ([3]; 4th week after administration): 60%; Negative conversion number (Sarcoptes mites; 1st week): 7; Negative conversion number (Sarcoptes mites; 2nd week): 9; Negative conversion number (Sarcoptes mites; 3rd week): 10; Negative conversion number (Sarcoptes mites; 4th week): 10; Negative conversion rate (%) (Sarcoptes mites; 1st week): 70%; Negative conversion rate (%) (Sarcoptes mites; 2nd week): 90%; Negative conversion rate (%) (Sarcoptes mites; 3rd week): 100%; Negative conversion rate (%) (Sarcoptes mites; 4th week): 100%; active Haematopinus observed on the body surface (swine Haematopinus): no active Haematopinus was found; Survival condition (survival rates/%) [1, 4]: 0%; Survival condition (survival rates/%) [1, 5]: 0%; Survival condition (survival rates/%) [1, 6]: 0%; Survival condition (survival rates/%) (zebrafish; 0.5 ppm): 0%; Survival condition (survival rates/%) (zebrafish; 1.0 ppm): 0%; Survival condition (survival rates/%) (zebrafish; 1.5 ppm): 0%

Question: For Milbemycin [reference compound], which “Survival condition (survival rates/%)” value ([1]; in vivo) is on record?
Answer: 0%

Question: And the “Survival condition (survival rates/%)” value (zebrafish; 0.5 ppm)?
Answer: 0%

Question: What about the “Survival condition (survival rates/%)” value (zebrafish; 1.0 ppm) of the same molecule?
Answer: 0%

Question: What about the “Survival condition (survival rates/%)” value (zebrafish; 1.5 ppm) of the same molecule?
Answer: 0%
